Laboratory results: patent US20180140578A1, “METHODS AND COMPOSITIONS FOR THE DIAGNOSIS AND SELECTIVE TREATMENT OF CANCER” (Board of Regents of the University of Texas System, priority 2016, published 2018)
“Also recorded” adds a separate entry of the source.

Experiments:
RBM39-Nluc = target: T1, RBM39-Nluc (Homo sapiens, UniProt Q14498+Q66K64); assay: RBM39-Nluc degradation by Nano-Glo luciferase assay; type: cell-based; conditions: H1155 RBM39-Nluc cells; read-out: decrease in RBM39-Nluc activity (IC50)
T1 construct: Homology directed repair facilitates tagging of endogenous RBM39 by AID, 3xFLAG, AcGFP, or Nanoluciferase; endogenous in cells; host or cells: H1155 RBM39-Nluc knock-in cells
Protocol: NanoLuc was knocked-in to the 3-prime end of the RBM39 gene using the procedure described above yielding H1155 RBM39-Nluc cells. […] Luminescence was recorded by EnVision multimode plate reader (Perkin Elmer). IC50 was determined with GraphPad Prism using baseline correction (by normalizing to DMSO control), the asymmetric (five parameter) equation and least squares fit.

[1] = tested on: tumors derived from HCT-116 cells expressing RBM39 G268V; assay: Mouse xenograft model, HCT-116 RBM39 G268V; type: in vivo, Nod-Scid IL-2Rγ KO mice
Protocol: All animal work was approved by the Institutional Animal Care and Use Committee at UTSW. UTSW is accredited by the Association for Assessment and Accreditation of Laboratory Animal Care International (AAALAC). Animals were obtained from the UTSW Breeding Core Facility. Nod-Scid IL-2Rγ KO mice were implanted with 5 million parental HCT-116 cells or HCT-116 cells expressing RBM39 G268V in a volume of 0.1 ml in the left flank. Tumor volumes were measured every 2-4 days with calipers. Volume is calculated as (L*W^2)*3.14)/6.

[2] = tested on: DCAF15-3xFLAG and mutant RBM39Δ150 (M265L, E271Q, P272S); assay: RBM39Δ150 pulldown assay, mutant RBM39; type: binding, human; conditions: at concentrations as high as 10 μM
Protocol: RBM39 lacking the first 150 amino acids after the start codon (RBM39Δ150) was cloned into the pFastBac1 (Life Technologies) vector. Site-directed Mutagenesis of RBM39 was performed using Q5 site-directed mutagenesis kit (NEB). DCAF15-GST (C-terminal GST tag) and DDB1 were also cloned into pFastBac1. The production of baculovirus was carried out following vendor's instructions. Protein was expressed in SF9 cells by infection with each protein specific baculovirus, and cells were harvested 48 hr later and frozen in liquid nitrogen. For purification of RBM39Δ150, frozen cells were pulverized by cryomill and resuspended in lysis buffer (40 mM Tris, pH 7.5, 225 mM NaCl, 1× […] Protease inhibitor). The lysate was passed through a 22 gauge needle 2 times followed by ultracentrifugation at 25000 rpm for 30 min. Clarified lysate was incubated with Ni-NTA agarose (Qiagen) for 30 min with rotation at 4° C. Resin and bound protein were washed with wash buffer 1 (40 mM Tris, pH 7.5, 225 mM NaCl) followed by wash buffer 2 (40 mM Tris, pH 7.5, 20 mM imidazole, 225 mM NaCl). Proteins were eluted with elution buffer (40 mM Tris, pH 7.5, 300 mM imidazole, 225 mM NaCl) and concentrated to 0.5 ml. Concentrated proteins were then fractionated on Superdex 200 Increase 10/300 GL (GE Healthcare). […]

758 cancer cell lines = conditions: CTD2 AUC values; cited from earlier work
[3] = target: T2, RBM39-3xFLAG G268V with CUL4-DCAF15 complex (Homo sapiens, UniProt Q14498+Q66K64, G268V); assay: In vitro formation of complex in lysates, G268V; type: binding; conditions: in the presence of 10 μM of indisulam
T2 construct: lysate derived from parental cells, RBM39-3xFLAG cells, or RBM39 G268V-3xFLAG cells; endogenous in cells; host or cells: HCT-116 RBM39 G268V-3xFLAG cells (treated cells in A91; lysates in A95)
Protocol: First, we reconstituted formation of the RBM39-CUL4-DCAF15 complex in vitro (FIG. 4, panel A).
Anti-Flag M2 antibody (Sigma-Aldrich) was coupled to Dynabeads M-270 epoxy beads (Life Technologies) at the ratio of 10 μg of antibody/mg beads. […] Frozen cells were then pulverized in the a cryomill (Retsch) with one 25 mm steel ball and five cycles of three min at 25 Hz with intermittent cooling in liquid nitrogen. […] The lysates were centrifuged at 8000 g for 5 min at 4° C. 12 mg of conjugated Anti-Flag magnetic beads were mixed with clarified lysates for 5 min at 4° C. on a rotating platform, followed by three washes with IP buffer. Bound proteins were eluted with 1 mg/ml 3xFLAG peptide, followed by SDS-PAGE on a 10% Bis Tris gel. After brief electrophoresis, bands containing all the proteins were cut with clean blades. For western blotting of co-immunoprecipitated proteins, anti-DDA1 (ProteinTech, 14995-1-AP, 1:1000), anti-DDB1 (Abcam, ab109027, 1;10000), anti-CUL4A (Cell Signaling, 2699, 1:1000), anti-CUL4B (ProteinTech, 12916-1-AP, 1:1000) were used.

In the case of NS(=O)(=O)c1ccc(S(=O)(=O)Nc2cccc3c(Cl)c[nH]c23)cc1 [Indisulam, indisulam], the DC50 (RBM39-Nluc) was 360 nM, the tumor response ([1]; 25 mg/kg indisulam intravenous once a day for eight days, RBM39 G268V) was “grew at a rate indistinguishable from that of the control group; also recorded: resistant” and the “Average maximal weight loss from start of therapy to 1 day post final dose” value ([1]; G268V xenograft, 25 mg/kg once a day for eight days) was 8.4%. For the same compound, the “recruitment of M265L or E271Q variants of RBM39Δ150 to DCAF15” value [2] was “failed to recruit”, the “sensitivity to indisulam amongst hematopoietic and lymphoid (HL) lineage cell lines” value (758 cancer cell lines) was “significantly enriched” and the “co-purification of RBM39-3xFLAG G268V with CUL4-DCAF15 complex” value [3] was “did not co-purify”.
